For two compounds, IC50 results are on record in BindingDB's records for doi:10.1021/jm020056z (University of Newcastle, 2002).

In test [1] the target is T1, Cyclin-A2 [171-432]/Cyclin-dependent kinase 2 (Homo sapiens, UniProt P24941).
T1 construct: 171-432
Description: Kinase Inhibition Assay.

The target in test [2] is Cyclin-dependent kinase 1/G2/mitotic-specific cyclin-B (Marthasterias glacialis, UniProt P15206+Q9DGD3). The test can be described thus: Kinase Inhibition Assay.

SMILES strings stand for the structures.

Broadly, the IC50 is the concentration needed to halve the response being measured. Higher therefore signals a need for much substance.

Sequence of Cyclin-dependent kinase 1/G2/mitotic-specific cyclin-B (Q9DGD3 whole entry): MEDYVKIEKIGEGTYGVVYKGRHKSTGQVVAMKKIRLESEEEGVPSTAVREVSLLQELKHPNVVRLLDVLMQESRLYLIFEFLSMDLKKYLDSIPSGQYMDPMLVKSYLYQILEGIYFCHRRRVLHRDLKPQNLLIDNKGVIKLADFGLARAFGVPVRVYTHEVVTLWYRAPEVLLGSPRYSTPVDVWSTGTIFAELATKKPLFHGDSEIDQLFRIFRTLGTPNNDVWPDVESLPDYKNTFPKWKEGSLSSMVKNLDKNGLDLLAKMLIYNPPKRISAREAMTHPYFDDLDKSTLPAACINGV
Sequence of Cyclin-dependent kinase 1/G2/mitotic-specific cyclin-B (P15206 whole entry): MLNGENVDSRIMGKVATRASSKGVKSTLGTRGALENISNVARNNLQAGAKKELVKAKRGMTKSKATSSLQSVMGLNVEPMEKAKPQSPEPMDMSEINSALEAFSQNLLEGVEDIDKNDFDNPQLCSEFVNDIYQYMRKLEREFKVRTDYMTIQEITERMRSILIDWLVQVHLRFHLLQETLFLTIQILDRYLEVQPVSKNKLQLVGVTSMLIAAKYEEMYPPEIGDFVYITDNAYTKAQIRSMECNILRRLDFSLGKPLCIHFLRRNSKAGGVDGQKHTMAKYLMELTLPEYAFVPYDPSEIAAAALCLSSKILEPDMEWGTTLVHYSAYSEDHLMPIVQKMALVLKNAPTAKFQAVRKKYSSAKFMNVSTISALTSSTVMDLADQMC

`Nc1nc(OCC2CC=CCC2)c2[nH]cnc2n1` (stereo not drawn): in test [1], inhibition was half-maximal at 16 µM (IC50).

For the compound `CCOC(C)(COc1nc(N)nc2[nH]cnc12)OCC`, the IC50 came out at 33 µM in test [1] and 36 µM in test [2].
